From ChEMBL document CHEMBL1201862, “PubChem BioAssay data set” (2004) come the findings set out here.

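Growth conditions: 96-well plates. Treatment: test compound, 48 hours, 5 concentrations. Analysis: linear interpolation between bracketing concentrations; unreached endpoints set to highest concentration. GI50: concentration for 50% inhibition of growth.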 The source made the active and inactive calls. No stated cut-off is given here; in the data, active = GI50 up to about 1.1 µM and inactive = higher. Where only a bound is given, the exact number is not on record here.

Common to all, as to assay: NCI anticancer screen, dose series, 48 h
In assay [1] the test system is HCT-15.
Assay [2] concerns OVCAR-3.
Assay [3] has as its system SNB-75.
Assay [4] deals with OVCAR-5.
Assay [5] has as its system SNB-19.
For assay [6], the system named is COLO 205.
Assay [7] concerns SR.
The subject of assay [8] is UO-31.
Assay [9] concerns EKVX.
Assay [10] has as its system IGROV-1.
In assay [11] the test system is SF-539.
The test system of assay [12] is SF-268.
Assay [13] deals with SK-MEL-5.
The test system of assay [14] is NCI-H23.
The test system of assay [15] is A498.
In assay [16] the test system is RPMI-8226.

As for `Cc1cc(S(=O)(=O)O)c(NC(=O)C(=O)Cc2cc(=O)oc3cc(O)ccc23)cc1Cl`, the GI50 was above 100 µM in assay [1]; > 100 µM (inactive) in assay [2]; > 100 µM (inactive) in assay [3]; > 100 µM (inactive) in assay [4]; > 100 µM (inactive) in assay [5]; > 100 µM (inactive) in assay [6]. The GI50 in [7], in assay [8], in assay [9], in assay [10], in [11] and in [12] was > 100 µM (inactive) in each case. Moreover, the GI50 in assay [13], in assay [14] and in assay [15] was > 100 µM (inactive) in each case.

Consider `Cc1cccc2c1Sc1ccccc1C2NC(=O)CCN(C)C` (stereo not drawn), for which the GI50 in assay [1] is above 100 µM; in [3] it was 96.4 µM (inactive); in [4] it was > 100 µM (inactive); in assay [5], > 100 µM (inactive); in assay [6], > 100 µM (inactive); in assay [7], > 100 µM (inactive). The GI50 in assay [8], in [9], in [10], in [11], in assay [16] and in [12] was > 100 µM (inactive) throughout. Also, the GI50 in [13] and in [14] was > 100 µM (inactive) throughout.

On to `CC(C)c1ccccc1NC(=O)C(=O)Cc1nc2ccccc2s1`, for which the GI50 in [1] is above 100 µM; in assay [2], > 100 µM (inactive); in assay [3] it was > 100 µM (inactive); in [5] it was > 100 µM (inactive); in assay [6], > 100 µM (inactive); in assay [7] it was > 100 µM (inactive). Besides, the GI50 in assay [8], in assay [9], in assay [10], in [11], in [12] and in assay [13] was > 100 µM (inactive) throughout. The GI50 in [14] and in assay [15] was > 100 µM (inactive) throughout.

As to `CC(C1=CC=C2[C@@H]3CCC4CC(N(C)C)CC[C@]4(C)C3CC[C@]12C)N(C)C=O` (stereo partly drawn), the GI50 in assay [1] was above 100 µM; in assay [2], > 100 µM (inactive); in assay [3] it was 52.8 µM (inactive); in assay [4] it was > 100 µM (inactive); in assay [5], > 100 µM (inactive); in assay [6] it was > 100 µM (inactive). Further, the GI50 was > 100 µM (inactive) in assay [8]; > 100 µM (inactive) in [10]; > 100 µM (inactive) in assay [11]; 78.3 µM (inactive) in [16]; > 100 µM (inactive) in [12]; > 100 µM (inactive) in [13]. In addition, the results for the GI50 in [14] and in [15] were > 100 µM (inactive) and 6.49 µM (inactive), respectively.

On to `CCC1CN2CCc3cc(OC)c(OC)cc3C2CC1CC1c2cc(OC)c(OC)cc2CCN1C(=O)CNC(=O)OC(C)(C)C` (stereo not drawn), for which the GI50 is 12.3 µM in assay [1]; 11.9 µM (inactive) in [2]; 20.9 µM (inactive) in [3]; 24.3 µM (inactive) in assay [4]; 13.9 µM (inactive) in [5]; 3.44 µM (inactive) in [6]. Moreover, the GI50 in [8] is 24.4 µM (inactive); in assay [9], 5.05 µM (inactive); in [10], 19.5 µM (inactive); in [16], 19 µM (inactive); in assay [12] it was 24.4 µM (inactive); in assay [13], 6 µM (inactive). Also, the GI50 in assay [14] was 21.4 µM (inactive); in assay [15], 32.3 µM (inactive).

For `COC(=O)C(=Cc1cc(OC)c(OC)c(OC)c1-c1cc2c(cc1C1(C)OCCS1)OCO2)C(=O)OC` (stereo not drawn), the GI50 in [1] was 24.7 µM; in assay [2], 15.2 µM (inactive); in assay [4] it was > 100 µM (inactive); in [5], 98.9 µM (inactive); in [6] it was 40 µM (inactive); in [7] it was 22.2 µM (inactive). Moreover, the GI50 in assay [9] was 35.6 µM (inactive); in [10] it was 16.3 µM (inactive); in assay [11] it was 40.6 µM (inactive); in [16], 28 µM (inactive); in [12], 29.5 µM (inactive); in assay [13], 26.4 µM (inactive). For the same molecule, the GI50 in [14] was 19.8 µM (inactive).

For `Cn1cc(C(=O)c2ccccc2)cc(C(=O)c2ccccc2)c1=O`, the GI50 in [1] is above 100 µM; in assay [2], > 100 µM (inactive); in [3], > 100 µM (inactive); in assay [4], > 100 µM (inactive); in assay [5] it was > 100 µM (inactive); in assay [6] it was > 100 µM (inactive). Moreover, the GI50 in assay [7], in [8], in [9], in assay [10], in assay [11] and in assay [16] was > 100 µM (inactive) throughout. Moreover, the GI50 in assay [12], in [13] and in assay [14] was > 100 µM (inactive) each time.

Take `CCOP(=O)(OCC)C1=NC=CC=CC1n1c(-c2ccccc2)nn(CC)c1=O` (stereo not drawn): the GI50 is above 100 µM in assay [1]; > 100 µM (inactive) in assay [2]; > 100 µM (inactive) in assay [5]; > 100 µM (inactive) in [6]; > 100 µM (inactive) in assay [7]; > 100 µM (inactive) in assay [9]. The GI50 in assay [10], in [11], in assay [16], in assay [12], in [13] and in [14] was > 100 µM (inactive) in each case.

In the case of `COC(=O)/C(C#N)=C1\CCC(OC)N1` (stereo not drawn), the GI50 in [1] is above 100 µM; in assay [2], > 100 µM (inactive); in assay [3], > 100 µM (inactive); in assay [4] it was > 100 µM (inactive); in assay [5], > 100 µM (inactive); in [6], > 100 µM (inactive). Besides, the GI50 in assay [8], in assay [9], in assay [10], in [11], in assay [16] and in [12] was > 100 µM (inactive) in each case. For the same molecule, the GI50 in [13] and in [14] was > 100 µM (inactive) throughout.

Consider `COc1ccc(/C=C2\C(=O)N(C(=O)Cc3ccccc3)N=C2C)cc1OC`, for which the GI50 in assay [1] is above 100 µM; in assay [2] it was > 100 µM (inactive); in assay [3] it was > 100 µM (inactive); in assay [4] it was > 100 µM (inactive); in [5], > 100 µM (inactive); in assay [6] it was > 100 µM (inactive). The GI50 in assay [7], in [8], in assay [9], in [11], in [16] and in assay [12] was > 100 µM (inactive) each time. Further, in [14], the GI50 was > 100 µM (inactive).

In the case of `CC1C[C@]2(C[C@@H](C)C(=O)O2)O[C@@H]2CC3(C)[C@@H]4CCC5C(C)(C)OC(=O)C[C@H]6OO[C@]4(CC[C@]3(C)C12)CC56O` (stereo partly drawn), the GI50 is above 100 µM in [1]; > 100 µM (inactive) in assay [2]; > 100 µM (inactive) in assay [3]; > 100 µM (inactive) in [4]; > 100 µM (inactive) in assay [5]; > 100 µM (inactive) in assay [7]. In addition, the GI50 in assay [8], in [10], in assay [11], in assay [16], in [13] and in assay [14] was > 100 µM (inactive) each time.

As to `CC1=C(C(=O)Nc2ccc([N+](=O)[O-])cc2)C(c2ccccc2F)C(C(=O)Nc2ccc([N+](=O)[O-])cc2)=C(C)N1`, the GI50 is 8.32 µM (inactive) in assay [2]; 13.9 µM (inactive) in assay [3]; 35.1 µM (inactive) in assay [4]; 21.1 µM (inactive) in [5]; 13 µM (inactive) in assay [6]; 6.61 µM (inactive) in [8]. The GI50 in [9] is 8.81 µM (inactive); in assay [10] it was 12.8 µM (inactive); in assay [11], 17.3 µM (inactive); in [16] it was 3.8 µM (inactive); in [12], 21.2 µM (inactive); in [13] it was 13.9 µM (inactive). Besides, the figures for the GI50 in assay [14] and in assay [15] were 11.2 µM (inactive) and 5.48 µM (inactive), respectively.

On to `O=C1OC(=O)c2c1c(-c1ccccc1)nc1ccccc21`, for which the GI50 was above 100 µM in assay [1]; > 100 µM (inactive) in assay [2]; > 100 µM (inactive) in assay [3]; > 100 µM (inactive) in assay [5]; > 100 µM (inactive) in assay [6]; > 100 µM (inactive) in assay [8]. Also, the GI50 in assay [9], in assay [10], in assay [11], in assay [16], in [12] and in assay [13] was > 100 µM (inactive) in each case. Further, the GI50 in [14] and in assay [15] was > 100 µM (inactive) in each case.

Regarding `CC(=O)C1C(=O)C(=O)N(c2ccccc2C(C)C)C1=O` (stereo not drawn), the GI50 in assay [1] is above 100 µM; in [2] it was > 100 µM (inactive); in assay [3], > 100 µM (inactive); in assay [4] it was > 100 µM (inactive); in [5] it was > 100 µM (inactive); in assay [6] it was > 100 µM (inactive). Moreover, the GI50 in assay [8], in assay [9], in assay [10], in assay [11], in [16] and in assay [12] was > 100 µM (inactive) each time. The GI50 in assay [13], in assay [14] and in [15] was > 100 µM (inactive) each time.
